According to the Kinase Knowledgebase extract (Sharma et al. 2016):

Columns and labels:
[1] = test system: EGFR (Human), P00533 [T790M/L858R]; settings: nci-h1975
[2] = target: EGFR (human), P00533 [WT]
[3] = test system: EGFR (Human), P00533 [Assessment of Proliferation in EGFR DelE746_A750 Mutant Expressing HCC827 Cells]
[4] = test system: EGFR (human), P00533 [WT]; settings: a431

EGFR (Human), P00533 [T790M/L858R], sequence (P00533 whole entry T790M/L858R, looked up): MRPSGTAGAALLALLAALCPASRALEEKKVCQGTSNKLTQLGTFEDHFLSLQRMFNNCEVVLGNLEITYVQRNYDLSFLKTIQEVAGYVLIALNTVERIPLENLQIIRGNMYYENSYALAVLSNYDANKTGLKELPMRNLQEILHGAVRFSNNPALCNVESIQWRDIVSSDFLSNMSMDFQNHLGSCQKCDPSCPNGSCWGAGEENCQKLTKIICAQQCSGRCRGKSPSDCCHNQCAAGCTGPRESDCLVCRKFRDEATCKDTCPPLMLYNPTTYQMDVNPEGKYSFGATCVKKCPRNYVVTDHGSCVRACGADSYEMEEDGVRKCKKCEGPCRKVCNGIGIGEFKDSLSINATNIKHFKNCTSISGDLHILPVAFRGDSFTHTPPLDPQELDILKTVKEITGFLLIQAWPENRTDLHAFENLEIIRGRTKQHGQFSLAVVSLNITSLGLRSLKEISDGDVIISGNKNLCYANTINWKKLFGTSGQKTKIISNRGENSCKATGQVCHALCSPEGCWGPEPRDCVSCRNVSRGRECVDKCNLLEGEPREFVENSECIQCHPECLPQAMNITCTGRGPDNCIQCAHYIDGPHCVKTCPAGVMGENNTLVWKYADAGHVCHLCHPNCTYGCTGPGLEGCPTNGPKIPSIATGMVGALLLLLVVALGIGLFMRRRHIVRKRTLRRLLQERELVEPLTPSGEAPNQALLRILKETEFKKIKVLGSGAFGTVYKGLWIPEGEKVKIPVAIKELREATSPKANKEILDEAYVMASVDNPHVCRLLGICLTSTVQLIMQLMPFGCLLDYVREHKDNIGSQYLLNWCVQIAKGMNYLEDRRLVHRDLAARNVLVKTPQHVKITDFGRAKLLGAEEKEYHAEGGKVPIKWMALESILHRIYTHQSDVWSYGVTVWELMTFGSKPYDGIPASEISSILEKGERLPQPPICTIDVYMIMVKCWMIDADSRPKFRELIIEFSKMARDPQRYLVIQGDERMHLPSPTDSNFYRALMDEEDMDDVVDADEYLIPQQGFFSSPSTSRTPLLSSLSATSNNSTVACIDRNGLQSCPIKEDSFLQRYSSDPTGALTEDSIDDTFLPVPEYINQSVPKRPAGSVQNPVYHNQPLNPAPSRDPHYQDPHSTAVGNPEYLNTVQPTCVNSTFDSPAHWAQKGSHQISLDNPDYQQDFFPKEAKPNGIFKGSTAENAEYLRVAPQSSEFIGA
EGFR (human), P00533 [WT], sequence (P00533 whole entry, looked up): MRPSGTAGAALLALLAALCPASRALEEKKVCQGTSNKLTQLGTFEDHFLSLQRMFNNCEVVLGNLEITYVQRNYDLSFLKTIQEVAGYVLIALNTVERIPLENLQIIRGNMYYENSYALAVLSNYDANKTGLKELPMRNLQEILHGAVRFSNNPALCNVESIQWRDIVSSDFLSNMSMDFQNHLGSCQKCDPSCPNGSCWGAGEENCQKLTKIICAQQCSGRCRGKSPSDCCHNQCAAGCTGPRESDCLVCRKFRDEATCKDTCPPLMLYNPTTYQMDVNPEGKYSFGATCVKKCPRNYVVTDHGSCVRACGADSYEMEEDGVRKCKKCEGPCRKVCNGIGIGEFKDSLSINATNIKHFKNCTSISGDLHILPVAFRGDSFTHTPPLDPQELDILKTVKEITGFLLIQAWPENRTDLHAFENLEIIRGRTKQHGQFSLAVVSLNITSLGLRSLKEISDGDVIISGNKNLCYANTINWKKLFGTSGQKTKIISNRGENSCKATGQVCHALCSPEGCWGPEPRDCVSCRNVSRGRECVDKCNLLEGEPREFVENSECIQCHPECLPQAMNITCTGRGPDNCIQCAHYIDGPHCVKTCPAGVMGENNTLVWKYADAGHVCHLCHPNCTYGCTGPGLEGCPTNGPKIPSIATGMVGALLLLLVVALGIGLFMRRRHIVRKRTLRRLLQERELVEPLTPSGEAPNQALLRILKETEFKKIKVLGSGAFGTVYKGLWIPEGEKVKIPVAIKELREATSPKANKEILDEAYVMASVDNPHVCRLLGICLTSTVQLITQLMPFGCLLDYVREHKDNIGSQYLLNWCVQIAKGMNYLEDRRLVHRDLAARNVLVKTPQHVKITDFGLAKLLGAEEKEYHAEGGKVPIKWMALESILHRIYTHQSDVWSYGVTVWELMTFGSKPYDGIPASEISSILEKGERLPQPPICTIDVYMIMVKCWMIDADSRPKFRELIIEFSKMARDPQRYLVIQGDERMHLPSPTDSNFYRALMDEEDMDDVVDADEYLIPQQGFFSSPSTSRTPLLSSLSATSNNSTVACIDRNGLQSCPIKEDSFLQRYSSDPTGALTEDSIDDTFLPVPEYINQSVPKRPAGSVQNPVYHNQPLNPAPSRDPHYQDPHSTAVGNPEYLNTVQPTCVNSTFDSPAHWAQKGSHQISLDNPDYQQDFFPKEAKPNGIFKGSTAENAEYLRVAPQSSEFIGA
EGFR (Human), P00533 [Assessment of Proliferation in EGFR DelE746_A750 Mutant Expressing HCC827 Cells], sequence (P00533 whole entry, looked up, stated change not applied): as the sequence (P00533 whole entry, looked up) above

| SMILES | IC50 [2] | GI50 [3] | GI50 [1] | GI50 [4] |
| --- | --- | --- | --- | --- |
| C=CC(=O)Nc1cccc(Oc2nc(Nc3ccc(C(=O)OCCCN(C)C)cc3)nc3ccsc23)c1 |  | 0.05 to 0.1 µM | 0.05 to 0.1 µM |  |
| C=CC(=O)Nc1cccc(Oc2nc(Nc3ccc(N4CCC(N5CCOCC5)CC4)c(F)c3)nc3ccsc23)c1 |  | ≤ 0.05 µM | ≤ 0.05 µM |  |
| C=CC(=O)Nc1cccc(Nc2nc(Nc3ccc(C4CCN(C)CC4)c(F)c3)nc3ccsc23)c1 |  | ≤ 0.05 µM | ≤ 0.05 µM |  |
| C=CC(=O)Nc1cccc(Oc2nc(Nc3ccc(C=CCN4CCCCC4)cc3)nc3ccsc23)c1 |  | ≤ 0.05 µM | 0.05 to 0.1 µM |  |
| C=CC(=O)Nc1cccc(Oc2nc(Nc3ccc(NC(=O)N4CCN(C)CC4)c(F)c3)nc3ccsc23)c1 |  | ≤ 0.05 µM | 0.05 to 0.1 µM |  |
| C=CC(=O)Nc1cccc(Oc2nc(Nc3ccc(S(C)(=O)=O)cc3)nc3ccsc23)c1 |  | 0.05 to 0.1 µM | ≤ 0.05 µM |  |
| C=CC(=O)Nc1cccc(Oc2nc(Nc3ccc(N4CCC(N5CCCC5)CC4)c(Cl)c3)nc3ccsc23)c1 |  | ≤ 0.05 µM | ≤ 0.05 µM |  |
| C=CC(=O)Nc1cccc(Oc2nc(Nc3ccc(C(=O)NCCN(C)C)cc3)nc3ccsc23)c1 |  | ≤ 0.05 µM | 0.1 to 1 µM |  |
| C=CC(=O)Nc1ccc(F)c(Nc2nc(Nc3ccc(N4CCN(C)CC4)cc3)nc3ccsc23)c1 |  | ≤ 0.05 µM | 0.05 to 0.1 µM |  |
| C=CC(=O)Nc1cccc(Oc2nc(Nc3ccc(OC4CCN(C)CC4)c(F)c3)nc3ccsc23)c1 |  | ≤ 0.05 µM | ≤ 0.05 µM |  |
| C=CC(=O)Nc1cccc(Oc2nc(Nc3ccc(C(=O)N4CCN(S(=O)(=O)CC)CC4)c(Cl)c3)nc3ccsc23)c1 |  | ≤ 0.05 µM | 0.05 to 0.1 µM |  |
| C=CC(=O)Nc1cccc(Oc2nc(Nc3ccc(C(=O)NC4CCN(C)CC4)cc3)nc3ccsc23)c1 |  | ≤ 0.05 µM | ≤ 0.05 µM |  |

The next lines start with results.

| IC50 [2] | GI50 [3] | SMILES | GI50 [1] | GI50 [4] |
| --- | --- | --- | --- | --- |
| 0.1 to 1 µM | ≤ 0.05 µM | C=CC(=O)Nc1cccc(Nc2nc(Nc3ccc(N4CCN(C)CC4)cc3)nc3ccsc23)c1 | ≤ 0.05 µM |  |
| 0.1 to 1 µM | ≤ 0.05 µM | C=CC(=O)Nc1cccc(Oc2nc(Nc3ccc(N4CCC(N5CCCCC5)CC4)cc3)nc3ccsc23)c1 | ≤ 0.05 µM |  |
|  | ≤ 0.05 µM | C=CC(=O)Nc1cccc(Oc2nc(Nc3ccc(N4CCN(C(C)C)CC4)cc3)nc3ccsc23)c1 | ≤ 0.05 µM | 0.1 to 1 µM |
|  | ≤ 0.05 µM | C=CC(=O)Nc1cccc(Oc2nc(Nc3ccc(C(=O)NC4CCN(C(C)C)CC4)cc3)nc3ccsc23)c1 | ≤ 0.05 µM | 0.1 to 1 µM |
|  | ≤ 0.05 µM | C=CC(=O)Nc1cccc(Oc2nc(Nc3ccc(N4CCN(CC)CC4)cc3)nc3ccsc23)c1 | ≤ 0.05 µM | 0.1 to 1 µM |
|  | ≤ 0.05 µM | C=CC(=O)Nc1cccc(Oc2nc(Nc3ccc(N4CCN(C)CC4)cc3)nc3ccoc23)c1 | ≤ 0.05 µM | 0.1 to 1 µM |
|  | ≤ 0.05 µM | C=CC(=O)Nc1cccc(Oc2nc(Nc3ccc(CN(C)C)cc3)nc3ccsc23)c1 | ≤ 0.05 µM | 0.1 to 1 µM |
|  | ≤ 0.05 µM | C=CC(=O)Nc1cccc(Oc2nc(Nc3ccc(N4CCN(C5CCCCC5)CC4)cc3)nc3ccsc23)c1 | ≤ 0.05 µM | 0.1 to 1 µM |
|  | 0.05 to 0.1 µM | C=CC(=O)Nc1cccc(Oc2nc(Nc3ccc(N4CC[C@@H](n5ccnc5)C4)cc3)nc3ccsc23)c1 | ≤ 0.05 µM |  |
|  | ≤ 0.05 µM | C=CC(=O)Nc1cccc(Oc2nc(Nc3ccc(N4CCN(C)CC4)cn3)nc3ccsc23)c1 | ≤ 0.05 µM |  |
|  | 0.05 to 0.1 µM | C=CC(=O)Nc1cccc(Oc2nc(Nc3ccc(NC4CCN(C(C)C)CC4)nc3)nc3ccsc23)c1 | 0.05 to 0.1 µM |  |
|  | ≤ 0.05 µM | C=CC(=O)Nc1cccc(Oc2nc(Nc3ccc(N4CCN(CC)CC4)cn3)nc3ccsc23)c1 | ≤ 0.05 µM |  |
|  | ≤ 0.05 µM | C=CC(=O)Nc1cccc(Oc2nc(Nc3ccc(N4CCS(=O)(=O)CC4)cc3)nc3ccsc23)c1 | ≤ 0.05 µM |  |
|  | ≤ 0.05 µM | C=CC(=O)Nc1cccc(Oc2nc(Nc3ccc(N4CCN(C(C)C)CC4)cc3)nc3ccoc23)c1 | ≤ 0.05 µM | 0.1 to 1 µM |
